Data from US20250129044A1 (priority 2021, published 2025).

target: sodium channel isoforms (Homo sapiens, UniProt P35498); format: cell-based; conditions: area under the sodium current trace, step from −120 mV to 0 mV, HEK cells
Method: The sodium channel isoforms of interest are stably expressed in Human Embryonic Kidney Cells and the currents that flow through those channels in response to a depolarizing voltage clamp step from −120 mV to 0 mV are measured in the presence of increasing concentrations of the chemical agents. The area under the sodium current trace which correlates to the magnitude of sodium flux through the cell membrane is used to quantify the effects on gating of the channels. Other parameters that are measured in the assay include the peak current, time constant of open state inactivation and the voltage dependence of steady state inactivation properties. The concentration responses are used to determine potency of each chemical agents effects on modulating the sodium channel isoform gating. Such techniques are known to those skilled in the art, and may be developed, using current technologies, into low or medium throughput assays for evaluating compounds for their ability to modulate sodium channel behaviour.

Row | SMILES | Empirical Emax | EC50
1 | CC(C)c1ncc(C(=O)Nc2c(-c3ccccc3F)ccnc2C2CCC3(CC2)CC3)cn1 [Example 28, N-[4-(2-fluorophenyl)-2-spiro[2.5]octan-6-yl-3-pyridyl]-2-isopropyl-pyrimidine-5-carboxamide] | ++ (++ indicates a value from 2.0 up to 5.0 μM) | 
2 | CC(C)c1ncc(C(=O)Nc2c(-c3ccccc3F)ccnc2[C@H]2CC[C@@H](C(F)(F)F)CC2)cn1 [Example 29, N-[4-(2-fluorophenyl)-2-[4-(trifluoromethyl)cyclohexyl]-3-pyridyl]-2-isopropyl-pyrimidine-5-carboxamide] | + (+ indicates a value less than 2.0 μM) | 
3 | CC(C)c1ncc(C(=O)Nc2c(-c3ccccc3F)ccnc2[C@H]2CC[C@H](C(F)(F)F)CC2)cn1 [Example 30, N-[4-(2-fluorophenyl)-2-[4-(trifluoromethyl)cyclohexyl]-3-pyridyl]-2-isopropyl-pyrimidine-5-carboxamide] | ++ (++ indicates a value from 2.0 up to 5.0 μM) | 
4 | CC(C)c1ncc(C(=O)Nc2c(-c3ccccc3F)ccnc2C2CC(F)(F)CN2C(=O)OC(C)(C)C)cn1 (stereo not shown) [Example 31, tert-butyl 4,4-difluoro-2-[4-(2-fluorophenyl)-3-[(2-isopropylpyrimidine-5-carbonyl)amino]-2-pyridyl]pyrrolidine-1-carboxylate] | + (+ indicates a value less than 2.0 μM) | 
5 | CC(C)c1ncc(C(=O)Nc2c(-c3ccccc3F)ccnc2C2CC(F)(F)C2)cn1 [Example 32, N-(2-(3,3-difluorocyclobutyl)-4-(2-fluorophenyl)pyridin-3-yl)-2-isopropylpyrimidine-5-carboxamide] | +++ (+++ indicates a value from 5.0 up to 7.5 μM) | 
6 | CC(C)c1ncc(C(=O)Nc2c(-c3ccccc3F)ccnc2[C@H]2CC[C@@H](F)CC2)cn1 [Example 33] | +++ (+++ indicates a value from 5.0 up to 7.5 μM) | 
7 | CC(C)c1ncc(C(=O)Nc2c(-c3ccccc3F)ccnc2[C@H]2CC[C@H](F)CC2)cn1 [Example 34] | +++ (+++ indicates a value from 5.0 up to 7.5 μM) | 
8 | CC(C)c1ncc(C(=O)Nc2c(-c3ccccc3F)ccnc2C2CC(C(F)(F)F)C2)cn1 (stereo not shown) [Example 35, N-(4-(2-fluorophenyl)-2-(3-(trifluoromethyl)cyclobutyl)pyridin-3-yl)-2-isopropylpyrimidine-5-carboxamide] | +++ (+++ indicates a value from 5.0 up to 7.5 μM) | 
9 | CC(C)c1ncc(C(=O)Nc2c(-c3ccccc3F)ccnc2C2CC3(COC3)C2)cn1 [Example 36, N-(4-(2-fluorophenyl)-2-(2-oxaspiro[3.3]heptan-6-yl)pyridin-3-yl)-2-isopropylpyrimidine-5-carboxamide] | +++ (+++ indicates a value from 5.0 up to 7.5 μM) | 
10 | CO[C@H]1CC[C@@H](c2nccc(-c3ccccc3F)c2NC(=O)c2cnc(C(C)C)nc2)CC1 [Example 38] | + (+ indicates a value less than 2.0 μM) | 
11 | CO[C@H]1CC[C@H](c2nccc(-c3ccccc3F)c2NC(=O)c2cnc(C(C)C)nc2)CC1 [Example 39] | + (+ indicates a value less than 2.0 μM) | 
12 | CC(C)c1ncc(C(=O)Nc2c(-c3ccccc3)ccnc2C2CCCN2)cn1 (stereo not shown) [Example 40, 2-isopropyl-N-(4-phenyl-2-(pyrrolidin-2-yl)pyridin-3-yl)pyrimidine-5-carboxamide] | + (+ indicates a value less than 2.0 μM) | 
13 | C1=C(c2nccc(-c3ccccc3)c2-c2nc3c([nH]2)COCC3)CCOC1 [Example 44, 2-(2-(3,6-dihydro-2H-pyran-4-yl)-4-phenylpyridin-3-yl)-3,4,6,7-tetrahydropyrano[3,4-d]imidazole] | + (+ indicates a value less than 2.0 μM) | 
14 | c1ccc(-c2ccnc(C3CCOCC3)c2-c2nc3c([nH]2)COCC3)cc1 [Example 45, 2-(4-phenyl-2-(tetrahydro-2H-pyran-4-yl)pyridin-3-yl)-3,4,6,7-tetrahydropyrano[3,4-d]imidazole] | + (+ indicates a value less than 2.0 μM) | 
15 | FC1(F)CCC(c2nccc(-c3ccccc3)c2-c2nc3c([nH]2)COCC3)CC1 [Example 46, 2-(2-(4,4-difluorocyclohexyl)-4-phenylpyridin-3-yl)-3,4,6,7-tetrahydropyrano[3,4-d]imidazole] | +++ (+++ indicates a value from 5.0 up to 7.5 μM) | 
16 | Fc1ccc(F)c(-c2ccnc(C3CCC(F)(F)CC3)c2-c2nc3c([nH]2)COCC3)c1 [Example 47, 2-(2-(4,4-difluorocyclohexyl)-4-(2,5-difluorophenyl)pyridin-3-yl)-3,4,6,7-tetrahydropyrano[3,4-d]imidazole] | +++ (+++ indicates a value from 5.0 up to 7.5 μM) | 
17 | Fc1ccc(F)c(-c2ccnc(C3CCC(F)(F)C3)c2-c2nc3c([nH]2)COCC3)c1 (stereo not shown) [Example 48, 2-(2-(3,3-difluorocyclopentyl)-4-(2,5-difluorophenyl)pyridin-3-yl)-3,4,6,7-tetrahydropyrano[3,4-d]imidazole] | +++ (+++ indicates a value from 5.0 up to 7.5 μM) | 
18 | O=C(Nc1ccc(Cl)nc1)c1c(-c2ccccc2F)ccnc1C1CCCC1 [Example 49, N-(6-chloropyridin-3-yl)-2-cyclopentyl-4-(2-fluorophenyl)nicotinamide] | + (+ indicates a value less than 2.0 μM) | 
19 | O=C(Nc1ccc(Cl)nc1)c1c(-c2ccccc2F)ccnc1C1=CCCC1 [Example 50, N-(6-chloropyridin-3-yl)-2-(cyclopent-1-en-1-yl)-4-(2-fluorophenyl)nicotinamide] | + (+ indicates a value less than 2.0 μM) | 
20 | O=C(Nc1ccc(Cl)nc1)c1c(-c2ccccc2F)ccnc1C1=CCOCC1 [Example 51] | + (+ indicates a value less than 2.0 μM) | 
21 | CC(C)c1ccc(NC(=O)c2c(-c3ccccc3F)ccnc2C2=CCOCC2)cn1 [Example 52] | + (+ indicates a value less than 2.0 μM) | 
22 | CC(C)c1ccc(NC(=O)c2c(-c3ccccc3F)ccnc2C2CCOCC2)cn1 [Example 53, 4-(2-fluorophenyl)-N-(6-isopropylpyridin-3-yl)-2-(tetrahydro-2H-pyran-4-yl)nicotinamide] | ++ (++ indicates a value from 2.0 up to 5.0 μM) | 
23 | CC(C)c1ncc(C(=O)Nc2c(C3=CCCCO3)ccnc2C2CCC(F)(F)CC2)cn1 [Example 54, N-(2-(4,4-difluorocyclohexyl)-4-(3,4-dihydro-2H-pyran-6-yl)pyridin-3-yl)-2-isopropylpyrimidine-5-carboxamide] | ++++ (++++ indicates a value greater than 7.5) | 
24 | CC(C)c1ncc(C(=O)Nc2c(-c3ccccn3)ccnc2C2CCC(F)(F)CC2)cn1 [Example 55, N-(2′-(4,4-difluorocyclohexyl)-[2,4′-bipyridin]-3′-yl)-2-isopropylpyrimidine-5-carboxamide] | +++ (+++ indicates a value from 5.0 up to 7.5 μM) | 
25 | O=C(Nc1c(-c2cc(F)ccc2F)ccnc1C1CCC(F)(F)CC1)c1cnc(N2C3CCC2COC3)nc1 [Example 159, 2-(3-oxa-8-azabicyclo[3.2.1]octan-8-yl)-N-(2-(4,4-difluorocyclohexyl)-4-(2,5-difluorophenyl)pyridin-3-yl)pyrimidine-5-carboxamide] |  | < 1000 nM
